Assay [1] addresses T1, human CXCR4 (Homo sapiens, UniProt P61073). Nature of the assay: Receptor functionality: FACS staining of surface CXCR4 after pre-incubation with SDF-1α. It is filed as cell-based. Also noted: expressed in transfected cells; host or cells: murine CMS5 fibrosarcoma cells, retroviral vector pBulletCXCR4-IRES-eGFP. An excerpt:
CXCR-4 staining was plotted against EGFP fluorescence (FL1).

The target of assay [2] is T1, human CXCR4. Nature of the assay: Competitive receptor binding assay on Jurkat cells with 125I-CPCR4 as tracer. Also noted: Jurkat cells that endogenously express the CXCR4 receptor; endogenous in cells; host or cells: Jurkat cells. As to the method: For receptor binding assays cells were resuspended in PBS/0.2% BSA. A total of 200 μl of the suspension containing 400,000 Jurkat cells were incubated with 25 μl of the tracer solution (containing 3.1 kBq, approx. 0.1 nM) and 25 μl of the diluent or the competitor at different concentrations. […] After shaking for 2 h at room temperature, the incubation was terminated by centrifugation at 1300 rpm for 5 min. Cell pellets were washed once with cold PBS followed by a second centrifugation step. Cell bound radioactivity was determined by using a gamma counter. Experiments were repeated 2-3 times in triplicates. IC50 values of the compounds were calculated by nonlinear regression using GraphPad Prism (GraphPad Prism 4.0 Software, Inc., San Diego, Calif., USA). Each data point is the average of three determinations.

[3] abbreviates: Table 10, dimers and monomers, read-out: IC50.
Setting [4] is: Table 4, Orn-Nδ and/or Orn-Nα-modified pentapeptides, read-out: IC50.

Like-named read-outs stand apart in the source and are kept apart here. Numbered stars: 1 amine (or outer) side, 2 acyl side, 3 side chain; on linkers, the order of the positions; unused ones are H or OH. Bridge positions count the residues as written; N and C are the ends. Square brackets hold non-standard residues; d marks the D form. Peptide text beside a SMILES is read from it. I, II: the chains in the order shown. * marks the point of attachment. Sebacoyl = O=C(CCCCCCCCC(=O)[*:2])[*:1]; 2Nal = N[C@@H](Cc1ccc2ccccc2c1)C(=O)O; Suberoyl = O=C(CCCCCCC(=O)[*:2])[*:1]; Adipoyl = O=C(CCCCC(=O)[*:2])[*:1]; dNMeOrn = CN[C@H](CCCN)C(=O)O; X3 = NC(=O)CCCC(=O)*

For orientation: IC50 means the point on the concentration scale where inhibition reaches its midpoint.

T1 sequence (P61073 whole entry): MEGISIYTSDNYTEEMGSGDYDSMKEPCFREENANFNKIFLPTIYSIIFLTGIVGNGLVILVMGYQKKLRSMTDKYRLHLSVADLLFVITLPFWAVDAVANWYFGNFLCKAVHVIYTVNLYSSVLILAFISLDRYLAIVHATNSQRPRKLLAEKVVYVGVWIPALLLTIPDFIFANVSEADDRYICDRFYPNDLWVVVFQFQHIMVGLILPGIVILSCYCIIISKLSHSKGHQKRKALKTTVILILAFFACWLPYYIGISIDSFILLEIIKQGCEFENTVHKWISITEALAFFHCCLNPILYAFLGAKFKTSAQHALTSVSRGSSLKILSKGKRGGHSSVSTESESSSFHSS

Consider SDF-1α, for which, in assay [1] (SDF-1α treated, mock treated 209.0), the “mean fluorescence intensity, CMS5/CXCR4 cells” value is 80.5. Besides, in assay [1] (after pre-incubation with human SDF-1α 100 nM, 1 hr 37° C., control-treated […]), the “CMS5/CXCR4 cells stained positive for CXCR4” value is listed as 54.7%. Consider `CN1C(=O)[C@@H](Cc2ccc(O)cc2)NC(=O)CNC(=O)[C@H](Cc2ccc3ccccc3c2)NC(=O)[C@H](CCCNC(=N)N)NC(=O)[C@H]1CCCNC(=O)C[C@H](NC(=O)CCCCCNC(=O)CN1CCN(CC(=O)O)CCN(CC(=O)O)CCN(CC(=O)O)CC1)C(=O)NCCC[C@@H]1C(=O)N[C@@H](CCCNC(=N)N)C(=O)N[C@@H](Cc2ccc3ccccc3c2)C(=O)NCC(=O)N[C@H](Cc2ccc(O)cc2)C(=O)N1C` [NMe-D-Orn InDOTAAhxAsp], for which, in assay [2] (setting [3]), the IC50 worked out at 37.9 nM.

Consider `CN1C(=O)[C@@H](Cc2ccc(O)cc2)NC(=O)CNC(=O)[C@H](Cc2ccc3ccccc3c2)NC(=O)[C@H](CCCNC(=N)N)NC(=O)[C@H]1CCCNC(=O)CCCC(N)=O` [Monomer + Glutaric acid monoamide] (cyclo([2Nal]G[dY][dNMeOrn](X3)R)), for which the IC50 in assay [2] (setting [3]) turned out to be 66.5 nM. On to `CN1C(=O)[C@@H](Cc2ccc(O)cc2)NC(=O)CNC(=O)[C@H](Cc2ccc3ccccc3c2)NC(=O)[C@H](CCCNC(=N)N)NC(=O)[C@H]1CCCNC(=O)CCCCCCC(=O)NCCC[C@@H]1C(=O)N[C@@H](CCCNC(=N)N)C(=O)N[C@@H](Cc2ccc3ccccc3c2)C(=O)NCC(=O)N[C@H](Cc2ccc(O)cc2)C(=O)N1C` [NMe-D-Orn n = 6] (I: cyclo([2Nal]G[dY][dNMeOrn]R) / II: cyclo([2Nal]G[dY][dNMeOrn]R); linker I:4-II:4 via Suberoyl), for which the IC50 in assay [2] (read-out: IC50 (affinity)) was 2.51 ± 0.7 nM.

As for `N=C(N)NCCC[C@@H]1NC(=O)[C@H](CCCNCc2cccc3ccccc23)NC(=O)[C@@H](Cc2ccc(O)cc2)NC(=O)CNC(=O)[C@H](Cc2ccc3ccccc3c2)NC1=O` [cyc[D-Tyr-Orn(N1)-Arg-Nal-Gly]] (HELM PEPTIDE1{[dY].[O=C([C@H](CCCNCc1cccc2ccccc12)N[*:1])[*:2]].R.[O=C([C@H](Cc1ccc2ccccc2c1)N[*:1])[*:2]].G}$PEPTIDE1,PEPTIDE1,1:R1-5:R2$$$V2.0), the IC50 in assay [2] (setting [4]) is 40 ± 3 nM. In the case of `CN1C(=O)[C@@H](Cc2ccc(O)cc2)NC(=O)CNC(=O)[C@H](Cc2ccc3ccccc3c2)NC(=O)[C@H](CCCN=C(N)N)NC(=O)[C@H]1CCCNC(=O)CCCCCCCCC(=O)NCCC[C@@H]1C(=O)N[C@@H](CCCN=C(N)N)C(=O)N[C@@H](Cc2ccc3ccccc3c2)C(=O)NCC(=O)N[C@H](Cc2ccc(O)cc2)C(=O)N1C` [NMe-D-Orn n = 8] (I: cyclo([2Nal]G[dY][dNMeOrn]R) / II: cyclo([2Nal]G[dY][dNMeOrn]R); linker I:4-II:4 via Sebacoyl), the results for the 50% inhibitory concentration (IC50) in assay [2] (setting [3]) and in assay [2] (read-out: IC50 (affinity)) were 2.26 nM and 2.12 ± 0.9 nM, respectively. As to `N=C(N)NCCC[C@@H]1NC(=O)[C@H](CCCN(Cc2ccccc2)C(=O)c2ccc(F)cc2)NC(=O)[C@@H](Cc2ccc(O)cc2)NC(=O)CNC(=O)[C@H](Cc2ccc3ccccc3c2)NC1=O` [cyc[D-Tyr-Orn(Bz,FB)-Arg-Nal-Gly]] (HELM PEPTIDE1{[O=C([C@H](Cc1ccc2ccccc2c1)N[*:1])[*:2]].G.[dY].[O=C(c1ccc(F)cc1)N(CCC[C@H](N[*:1])C(=O)[*:2])Cc1ccccc1].R}$PEPTIDE1,PEPTIDE1,1:R1-5:R2$$$V2.0), the 50% inhibitory concentration (IC50) in assay [2] (setting [4]) was 100 nM. With `CN1C(=O)[C@@H](Cc2ccc(O)cc2)NC(=O)CNC(=O)[C@H](Cc2ccc3ccccc3c2)NC(=O)[C@H](CCCN=C(N)N)NC(=O)[C@H]1CCCNC(=O)CNC(=O)CC(CC(=O)NCC(=O)NCCC[C@@H]1C(=O)N[C@@H](CCCN=C(N)N)C(=O)N[C@@H](Cc2ccc3ccccc3c2)C(=O)NCC(=O)N[C@H](Cc2ccc(O)cc2)C(=O)N1C)NC(=O)CCCCCNC(=O)CN1CCN(CC(=O)O)CCN(CC(=O)O)CCN(CC(=O)O)CC1` (single isomer, unassigned) [NMe-D-Orn + Gly DOTAAhxbetaAsp], in assay [2] (setting [3]), the IC50 is 12.3 nM. As to `CN1C(=O)[C@@H](Cc2ccc(O)cc2)NC(=O)CNC(=O)[C@H](Cc2ccc3ccccc3c2)NC(=O)[C@H](CCCN=C(N)N)NC(=O)[C@H]1CCCNC(=O)CCCCC(=O)NCCC[C@@H]1C(=O)N[C@@H](CCCN=C(N)N)C(=O)N[C@@H](Cc2ccc3ccccc3c2)C(=O)NCC(=O)N[C@H](Cc2ccc(O)cc2)C(=O)N1C` [NMe-D-Orn n = 4] (I: cyclo([2Nal]G[dY][dNMeOrn]R) / II: cyclo([2Nal]G[dY][dNMeOrn]R); linker I:4-II:4 via Adipoyl), the IC50 turned out to be 3.65 nM in assay [2] (setting [3]) and 4.42 nM in assay [2] (read-out: IC50 (affinity)). As for `CN(CCC[C@@H]1C(=O)N[C@@H](CCCNC(=N)N)C(=O)N[C@@H](Cc2ccc3ccccc3c2)C(=O)NCC(=O)N[C@H](Cc2ccc(O)cc2)C(=O)N1C)C(=O)c1ccc(F)cc1` [cyc[D-Tyr-(Me)D-Orn(Me,FB)-Arg-Nal-Gly]] (HELM PEPTIDE1{[O=C([C@H](Cc1ccc2ccccc2c1)N[*:1])[*:2]].G.[dY].[CN(CCC[C@H](C(=O)[*:2])N(C)[*:1])C(=O)c1ccc(F)cc1].R}$PEPTIDE1,PEPTIDE1,1:R1-5:R2$$$V2.0), the half-inhibitory concentration (IC50) in assay [2] (Table 5, D-Orn derivatives, His, Phe, read-out: IC50) is 59 nM. Consider `CN1C(=O)[C@@H](Cc2ccc(O)cc2)NC(=O)CNC(=O)[C@H](Cc2ccc3ccccc3c2)NC(=O)[C@H](CCCNC(=N)N)NC(=O)[C@H]1CCCNC(=O)CCCCCCCCCCCC(=O)NCCC[C@@H]1C(=O)N[C@@H](CCCNC(=N)N)C(=O)N[C@@H](Cc2ccc3ccccc3c2)C(=O)NCC(=O)N[C@H](Cc2ccc(O)cc2)C(=O)N1C` [NMe-D-Orn n = 11], for which, in assay [2] (read-out: IC50 (affinity)), the IC50 was 11.1 ± 3.4 nM.

In the case of `CN1C(=O)[C@H](CCCNC(=N)N)NC(=O)[C@@H](Cc2ccc(O)cc2)NC(=O)CNC(=O)[C@H](Cc2ccc3ccccc3c2)NC(=O)[C@@H]1CCCNC(=N)N` [OD3, cyc[D-Tyr-Arg-(Me)Arg-Nal-Gly]], the 50% inhibitory concentration (IC50) in assay [2] (Table 1, Nα-monomethylated cyclic pentapeptides, read-out: IC50) stood at 31 nM.

As to `CN1C(=O)[C@@H](Cc2ccc(O)cc2)NC(=O)CNC(=O)[C@H](Cc2ccc3ccccc3c2)NC(=O)[C@H](CCCN=C(N)N)NC(=O)[C@H]1CCCNC(=O)CNC(=O)CC(=O)NCC(=O)NCCC[C@@H]1C(=O)N[C@@H](CCCN=C(N)N)C(=O)N[C@@H](Cc2ccc3ccccc3c2)C(=O)NCC(=O)N[C@H](Cc2ccc(O)cc2)C(=O)N1C` [NMe-D-Orn + Gly n = 1], the IC50 in assay [2] (setting [3]) came out at 5.48 nM. On to `N=C(N)NCCC[C@@H]1NC(=O)[C@H](CCCNCc2ccc3ccccc3c2)NC(=O)[C@@H](Cc2ccc(O)cc2)NC(=O)CNC(=O)[C@H](Cc2ccc3ccccc3c2)NC1=O` [cyc[D-Tyr-Orn(N2)-Arg-Nal-Gly]] (HELM PEPTIDE1{[dY].[O=C([C@H](CCCNCc1ccc2ccccc2c1)N[*:1])[*:2]].R.[O=C([C@H](Cc1ccc2ccccc2c1)N[*:1])[*:2]].G}$PEPTIDE1,PEPTIDE1,1:R1-5:R2$$$V2.0), for which, in assay [2] (setting [4]), the 50% inhibitory concentration (IC50) is 49 ± 1 nM.

Values taken from US8614290B2, “Cancer imaging and treatment” (Technische Universitat Munchen, priority 2007, dated 2013).
